How the values were obtained:
[1] = Measurement of drug residue in muscle; format: in vivo; settings: rat, injectable preparation 100 mg/mL (finely ground, mean particle diameter 3.5 μm) intramuscularly injected at 25 mg/kg, dissected 56 days after the injection
Experimental: The dihydrate of the present invention (150 mg) was dispersed to the suspension medium (1 mL) described below, and pulverized using 5 mm zirconia beads (1.2 g, pulverization time: 30 min) while being stirred with a stirrer. The suspension medium used for pulverization was a solution containing 0.832% (w/v) sodium carboxymethylcellulose (CMC-Na), 4.16% (w/v) mannitol, and 0.074% (w/v) sodium dihydrogenphosphatemonohydrate. The pH thereof was adjusted to 7.0 by adding an appropriate amount of sodium hydroxide. The concentration of each preparation was adjusted to 100 mg/mL using this medium.
An anhydride was subjected to pulverization in the same manner to obtain an anhydride (finely ground product) having a mean particle diameter of 3.5 μm. The mean particle diameter was measured using a laser diffraction particle size analyzer (SALD-3000) or SALD-3100, manufactured by Shimadzu Corporation).
Injectable preparations each containing the dihydrate of the present invention (finely ground product, mean particle diameter: 3.5 μm) or an anhydride (finely ground product, mean particle diameter: 3.5 μm) were obtained by the procedure described above.
Each injectable preparation thus obtained was intramuscularly injected into a rat in a dosage of 25 mg/kg. Each injectable preparation was injected into three rats.

[2] = Pharmacokinetics test using a dog (intramuscular injectable preparation); format: in vivo; settings: 10 mg/kg calculated as the anhydride
Experimental: Injectable preparations containing the dihydrate of the present invention as an active ingredient were formulated as shown in Table 3. Each of the injectable preparations was injected into the thigh muscle of a dog in such a dosage that 10 mg/kg of active ingredient calculated as the anhydride of the present invention was contained. FIG. 14 is a graph showing the mean blood concentration-time profile after the injection. As is clear from FIG. 14, the sustained release property can be stably maintained for more than 30 days from the injection.

Row | Compound | The number having residue in muscle (Number having residue/Total) [1] | time for which the sustained release property is stably maintained (mean blood concentration-time profile, FIG. 14) ([2]; injected into the thigh muscle, Table 3 formulation) | Stimulation at the injection site ([2]; thigh muscle injection, observed 7 days after the injection) | The number having residue in muscle (Number having residue/Total) ([1]; dihydrate)
1 | O=c1ccc2ccc(OCCCCN3CCN(c4cccc5sccc45)CC3)cc2[nH]1 [Anhydride, 7-[4-(4-benzo[b]thiophen-4-yl-piperazin-1-yl)butoxy]-1H-quinolin-2-one anhydride, reference compound] | 0/3 |  |  | 
2 | O=c1ccc2ccc(OCCCCN3CCN(c4cccc5sccc45)CC3)cc2[nH]1 [Dihydrate, 7-[4-(4-benzo[b]thiophen-4-yl-piperazin-1-yl)butoxy]-1H-quinolin-2-one dihydrate] |  | more than 30 days | low | 3/3

Reference: patent US10407415B2, “Dihydrate of benzothiophene compound or of a salt thereof, and process for producing the same” (OTSUKA PHARMACEUTICAL CO., LTD., priority 2012, dated 2019)
